Here are results for 2 molecules from patent US20130130387A1, “METHOD FOR GENERATING INDUCED PLURIPOTENT STEM CELLS FROM KERATINOCYTES DERIVED FROM PLUCKED HAIR FOLLICLES” (Technion Research & Development Foundation Limited, priority 2010, published 2013).

Assay [1] relates to HFKT-iPSC-CMs (β-adrenergic signaling pathway). Briefly: [Ca2+]i transients and contractions of HFKT-iPSC-derived cardiomyocytes. In kind it is cell-based, human. The settings on record: HFKT-iPSC-CMs clone KTR13, 37 day-old EB, stimulated at 0.6 Hz; effect within 2-3 min. As to the method:
[Ca^2+]i transients and contractions were measured in small dissociated contracting areas of EBs by means of fura-2 fluorescence (Biotium, Hayward, Calif., USA) and a video edge detector, respectively, as previously described (Dolnikov et al. 2006; Sedan et al. 2008).
In order to investigate the basic properties of the intracellular Ca^2+ ([Ca^2+]i) handling machinery and the mechanical function, [Ca^2+]I transients and contractions were recorded from small contracting clusters of the HFKT-iPSC-CMs by means of fura-2 fluorescence and a video edge detector, respectively.

The test system of assay [2] is HFKTs (KTN). Briefly: Conditions improving HFKT reprogramming: validated iPSC colonies. The note with it: for Validated iPSCs colonies: frozen virus, reduced virus concentration. Type of assay: cell-based, human.

“Also recorded” adds a separate entry of the source.

`CC(C)NCC(O)c1ccc(O)c(O)c1` (stereo not shown) [isoproterenol]: in assay [1], the “Effect on [Ca2+]i transient and contraction amplitudes” value is on record as “marked concentration-dependent positive inotropic effect; also recorded: increase in contraction amplitude”.
Take `Cc1c[nH]c(-c2cnc(NCCNc3ccc(C#N)cn3)nc2-c2ccc(Cl)cc2Cl)n1` [CHIR99021]: the “Validated iPSCs colonies” value in assay [2] (KTN + Cherry (3 reprogramming factors, no c-Myc)) was 6; in assay [2] (KTN + Stemcca (4 reprogramming factors)) it was 2. The “Generation of iPSCs with reduced number of factors” value in assay [2] (polycistronic vector with Oct4, Klf4 and Sox2, without c-Myc (cherry vector)) is reported as “able to generate iPSCs with no c-Myc”.
